The values below come from patent publication US8642647B2, “N1-benzo[1,3]dioxol-5-ylmethyl-N2-substituted biguanide derivative, preparation method thereof, and pharmaceutical composition containing same” (Hanall Biopharma Co., Ltd., priority 2008, dated 2014).

Holding throughout (type): cell-based
Assay [1] has as its system HepG2 cells. The assay can be described thus: Measurement of cholesterol synthesis inhibitory ability. The settings on record: for Cholesterol (100 μM) aver.: 100 μM compound; for Cholesterol (100 μM) aver. / Cholesterol (500 μM) aver.: 24 hours, HepG2 cells, content of cholesterol formed, lower value = stronger inhibition; for Cholesterol (500 μM) aver.: 500 μM compound. On the procedure: (§1) 2 mM metformin was used as a comparative compound for each of the plates (control group).
A cholesterol synthesis inhibitory ability, which is an important function of AMPK (AMP-activated protein kinase), was measured using HepG2 cells (ATCC: American Type Culture Collection) as a hepatic cell model according to the following procedure.
The hepatic cell model HepG2 cells were cultured in 1% serum-containing media (DMEM (Gibco), FBS (Gibco)) for 24 hours, and then treated with 100 μM or 500 μM of each of the compounds prepared in Examples for 24 hours. Then, the cells were disrupted with a lysis solution (0.1 M potassium phosphate, pH 7.4, 0.05 M NaCl, 5 mM cholic acid, 0.1% Triton X-100 (Sigma)). To the disrupted cells was added the same volume of a reaction solution (2 U/ml of a cholesterol oxidizing agent, 2 U/ml of a peroxidase, 0.2 U/ml of a cholesterol esterase, and 300 μM of Amplex red as a fluorescent factor (Molecular Probe)), which was allowed to react at 37° C. for 30 minutes. After completion of the reaction, the content of cholesterol formed in the cell lysates was measured at a wavelength of 560/590 nm (ex/em) using a fluorescence microscope.
A lower measurement value means an increased cholesterol synthesis inhibitory ability.

In assay [2] the test system is HepG2 cells. The assay can be described thus: Measurement of triglyceride synthesis inhibitory ability. To be noted: for Triglyceride (100 μM) aver.: 100 μM compound; for Triglyceride (100 μM) aver. / Triglyceride (500 μM) aver.: 24 hours, HepG2 cells, content of triglyceride formed, lower value = stronger inhibition; for Triglyceride (500 μM) aver.: 500 μM compound. On the procedure:
as §1
HepG2 cells (ATCC: American Type Culture Collection) were cultured in 1% serum-containing media (DMEM (Gibco), FBS (Gibco)) for 24 hours, and then treated with 100 μM or 500 μM of each of the compounds prepared in Examples for 24 hours. Then, the cells were disrupted with a lysis solution (0.1 M potassium phosphate, pH 7.4, 0.05 M NaCl, 5 mM cholic acid, 0.1% Triton X-100). To the disrupted cells was added the same volume of a reaction solution (0.76 U/ml of a glycerol kinase (Asan Pharmaceutical Co., Ltd.), […] of a peroxidase (Asan Pharmaceutical Co., Ltd.), 22.2 U/ml of a glycerol oxidizing agent (Asan Pharmaceutical Co., Ltd.), and 300 μM of Amplex red as a fluorescent factor (Molecular Probe)), which was allowed to react at 37° C. for 30 minutes. After completion of the reaction, the content of triglyceride formed in the cell lysates was measured at a wavelength of 560/590 nm (ex/em) using a fluorescence microscope.
A lower measurement value means an increased triglyceride synthesis inhibitory ability.

Assay [3] concerns HepG2 cells. As to the kind of experiment: Measurement of gluconeogenesis inhibitory ability. To be noted: Homo sapiens, HepG2, 24 h, 100 μM compound, 24 hours, HepG2 cells; content of glucose formed from 14C-lactate; lower value = stronger inhibition; read-out: Gluconeogenesis inhibition (100 μM) aver. As to the method: as §1
HepG2 cells (ATCC: American Type Culture Collection) were cultured in 10% serum-containing high glucose media, transferred to no serum-containing low glucose media (DMEM (Gibco), FBS (Gibco)), and then treated with 100 μM of each of the compounds for 24 hours. Then, the cells were treated with 0.5 μCi ^14C-lactate (Amersham Pharmacia) and 10 mM L-lactate (Sigma), and cultured for 4 hours. After cultivation, the media were removed therefrom, and the cells were washed with PBS, treated with 0.1N NaOH and kept at room temperature for 1 hour. Then, the cells were neutralized with 1N HCl, and the content of glucose formed in the cells was measured with a liquid scintillation counter.
A lower measurement value means an increased gluconeogenesis inhibitory ability.

Where [4] appears, read: 100 μM compound versus 2 mM metformin.

Each structure is given as a SMILES string.

For the compound `Cl.N=C(N)NC(=Nc1cc(Cl)cc(Cl)c1)NCc1ccc2c(c1)OCO2` [Example 34, N1-benzo[1,3]dioxol-5-ylmethyl-N2-(3,5-dichlorophenyl)biguanide hydrochloride], in the assay with HepG2 cells [1], the “Cholesterol (100 μM) aver.” value turned out to be 15.56 and the “Cholesterol (500 μM) aver.” value was 39.12. Further, in the assay with HepG2 cells [2], the “Triglyceride (100 μM) aver.” value came out at 21.41 and the “Triglyceride (500 μM) aver.” value came to 8.80. In addition, the activity at 100 µM in the assay with HepG2 cells [3] was 2.37%.
On the same counts, the results for `CCCCN=C(NCc1ccc2c(c1)OCO2)NC(=N)N.Cl` [Example 39, N1-benzo[1,3]dioxol-5-ylmethyl-N2-butyl biguanide hydrochloride] are 70.48, 49.52, 98.77, 64.23 and 87.3%.
On the same counts, the results for `Cl.N=C(N)NC(=Nc1ccc(Br)cc1)NCc1ccc2c(c1)OCO2` [Example 32, N1-benzo[1,3]dioxol-5-ylmethyl-N2-(4-bromophenyl)biguanide hydrochloride] are 11.62, 20.56, 35.08, 17.38 and 4.42%.
Turning to `Cl.N=C(N)NC(=Nc1cccc(Br)c1)NCc1ccc2c(c1)OCO2` [Example 41, N1-benzo[1,3]dioxol-5-ylmethyl-N2-(3-bromophenyl)biguanide hydrochloride], in the assay with HepG2 cells [1], the “Cholesterol (100 μM) aver.” value is listed as 23.61 and the “Cholesterol (500 μM) aver.” value is 32.23. Also, in the assay on HepG2 cells [2], the “Triglyceride (100 μM) aver.” value is recorded as 25.51 and the “Triglyceride (500 μM) aver.” value is 19.79. Also, the activity at 100 µM in the assay with HepG2 cells [3] amounted to 0%.
On the same counts, the results for `Cl.N=C(N)NC(=NC12CC3CC(CC(C3)C1)C2)NCc1ccc2c(c1)OCO2` [Example 27, N1-benzo[1,3]dioxol-5-ylmethyl-N2-(1-adamantyl)biguanide hydrochloride] are 64.82, 45.24, 67.58, 11.48 and 31.4%.
In the case of `COc1ccc(N=C(NCc2ccc3c(c2)OCO3)NC(=N)N)cc1.Cl` [Example 15, N1-benzo[1,3]dioxol-5-ylmethyl-N2-(4-methoxyphenyl)biguanide hydrochloride], in the assay with HepG2 cells [1] (setting [4]), the “effect in inhibiting cholesterol synthesis better than that of the control group” value is “at least 20 times”. The “Cholesterol (100 μM) aver.” value with HepG2 cells [1] is 52.95. Moreover, the “Triglyceride (100 μM) aver.” value in the assay with HepG2 cells [2] came out at 104.17. In the assay with HepG2 cells [3], the activity at 100 µM worked out at 75.6%.
For `Cl.N=C(N)NC(=NCc1ccc(F)c(F)c1)NCc1ccc2c(c1)OCO2` [Example 44, N1-benzo[1,3]dioxol-5-ylmethyl-N2-(3,4-difluorobenzyl)biguanide hydrochloride], in the assay with HepG2 cells [1], the “Cholesterol (100 μM) aver.” value was determined as 74.32 and the “Cholesterol (500 μM) aver.” value is given as 49.84. In the assay with HepG2 cells [2], the “Triglyceride (100 μM) aver.” value is 78.42 and the “Triglyceride (500 μM) aver.” value was determined as 56.79. In addition, in the assay with HepG2 cells [3], the activity at 100 µM stood at 103%.
On to `Cl.N=C(N)NC(=Nc1ccc(F)cc1)NCc1ccc2c(c1)OCO2` [Example 14, N1-benzo[1,3]dioxol-5-ylmethyl-N2-(4-fluorophenyl)biguanide hydrochloride], for which the “Cholesterol (100 μM) aver.” value with HepG2 cells [1] worked out at 57.35. The “Triglyceride (100 μM) aver.” value in the assay with HepG2 cells [2] was found to be 115.04. Further, the activity at 100 µM with HepG2 cells [3] turned out to be 102%.
On to `COc1cc(N=C(NCc2ccc3c(c2)OCO3)NC(=N)N)cc(OC)c1.Cl` [Example 26, N1-benzo[1,3]dioxol-5-ylmethyl-N2-(3,5-dimethoxyphenyl)biguanide hydrochloride], for which, in the assay on HepG2 cells [1], the “Cholesterol (100 μM) aver.” value came to 61.86 and the “Cholesterol (500 μM) aver.” value came to 17.53. In addition, in the assay on HepG2 cells [2], the “Triglyceride (100 μM) aver.” value is 86.94 and the “Triglyceride (500 μM) aver.” value was determined as 21.88. Besides, the activity at 100 µM in the assay on HepG2 cells [3] is 87.6%.
On to `Cl.N=C(N)NC(=NCc1ccc(Br)cc1)NCc1ccc2c(c1)OCO2` [Example 36, N1-benzo[1,3]dioxol-5-ylmethyl-N2-(4-bromobenzyl)biguanide hydrochloride], for which, in the assay with HepG2 cells [1], the “Cholesterol (100 μM) aver.” value is 25.31 and the “Cholesterol (500 μM) aver.” value worked out at 40.17. Also, in the assay on HepG2 cells [2], the “Triglyceride (100 μM) aver.” value worked out at 61.93 and the “Triglyceride (500 μM) aver.” value was 24.04. Further, the activity at 100 µM with HepG2 cells [3] was 92.9%.
On the same counts, the results for `CCCCCCN=C(NCc1ccc2c(c1)OCO2)NC(=N)N.Cl` [Example 6, N1-benzo[1,3]dioxol-5-ylmethyl-N2-hexyl biguanide hydrochloride] are 31.8, 19.1, 97.8, 70.3 and 104%.
On the same counts, the results for `COc1cc(N=C(NCc2ccc3c(c2)OCO3)NC(=N)N)cc(OC)c1OC.Cl` [Example 24, N1-benzo[1,3]dioxol-5-ylmethyl-N2-(3,4,5-trimethoxyphenyl)biguanide hydrochloride] are 65.36, 31.14, 80.30, 60.08 and 88.7%.
Consider `COc1ccc(CN=C(NCc2ccc3c(c2)OCO3)NC(=N)N)cc1.Cl` [Example 37, N1-benzo[1,3]dioxol-5-ylmethyl-N2-(4-methoxybenzyl)biguanide hydrochloride], for which, in the assay on HepG2 cells [1], the “Cholesterol (100 μM) aver.” value was found to be 60.36 and the “Cholesterol (500 μM) aver.” value was found to be 32.20. Also, the “effect in inhibiting triglyceride synthesis better than that of the control group” value with HepG2 cells [2] (setting [4]) is recorded as “at least 20 times”. Besides, in the assay on HepG2 cells [2], the “Triglyceride (100 μM) aver.” value is listed as 62.82 and the “Triglyceride (500 μM) aver.” value is 58.60. Also, the activity at 100 µM in the assay with HepG2 cells [3] turned out to be 104%.
On to `COc1ccc(OC)c(N=C(NCc2ccc3c(c2)OCO3)NC(=N)N)c1.Cl` [Example 12, N1-benzo[1,3]dioxol-5-ylmethyl-N2-(2,5-dimethoxyphenyl)biguanide hydrochloride], for which the “Cholesterol (100 μM) aver.” value in the assay on HepG2 cells [1] was found to be 58.53. For the same compound, the “Triglyceride (100 μM) aver.” value with HepG2 cells [2] was determined as 84.10. Further, in the assay on HepG2 cells [3], the activity at 100 µM amounted to 27.4%.
Consider `CC(C)CN=C(NCc1ccc2c(c1)OCO2)NC(=N)N.Cl` [Example 23, N1-benzo[1,3]dioxol-5-ylmethyl-N2-isobutyl biguanide hydrochloride], for which, in the assay on HepG2 cells [1], the “Cholesterol (100 μM) aver.” value is recorded as 68.02 and the “Cholesterol (500 μM) aver.” value is reported as 36.29. Further, in the assay on HepG2 cells [2], the “Triglyceride (100 μM) aver.” value was 84.58 and the “Triglyceride (500 μM) aver.” value came out at 59.80. Besides, the activity at 100 µM with HepG2 cells [3] is 100%.
The like results for `CCCCCCc1ccc(N=C(NCc2ccc3c(c2)OCO3)NC(=N)N)cc1.Cl` [Example 25, N1-benzo[1,3]dioxol-5-ylmethyl-N2-(4-hexylphenyl)biguanide hydrochloride] were, in that order, 82.62, 125.3, 18.43, 35.53 and 2.53%.
For the compound `Cc1ccc(CN=C(NCc2ccc3c(c2)OCO3)NC(=N)N)cc1.Cl` [Example 11, N1-benzo[1,3]dioxol-5-ylmethyl-N2-(4-methylbenzyl)biguanide hydrochloride], the “Cholesterol (100 μM) aver.” value in the assay with HepG2 cells [1] came out at 32.34. The “Triglyceride (100 μM) aver.” value in the assay on HepG2 cells [2] was determined as 7.49. In the assay on HepG2 cells [3], the activity at 100 µM turned out to be 1.81%.
